target: T1, human chemokine receptor 2 isoform B (Homo sapiens, UniProt P41597); test: Calcium mobilization assay (FLIPR, antagonist activity against MCP-1); format: cell-based; conditions: Ca mobilisation assay, CHOK1-CCR2B-A5 cells, inhibition of calcium increase induced by 20 nM MCP-1
T1 construct: host or cells: CHOK1-CCR2B-A5 cells (CHO-K1)
T1 sequence (P41597 1-360 isoform P41597-2): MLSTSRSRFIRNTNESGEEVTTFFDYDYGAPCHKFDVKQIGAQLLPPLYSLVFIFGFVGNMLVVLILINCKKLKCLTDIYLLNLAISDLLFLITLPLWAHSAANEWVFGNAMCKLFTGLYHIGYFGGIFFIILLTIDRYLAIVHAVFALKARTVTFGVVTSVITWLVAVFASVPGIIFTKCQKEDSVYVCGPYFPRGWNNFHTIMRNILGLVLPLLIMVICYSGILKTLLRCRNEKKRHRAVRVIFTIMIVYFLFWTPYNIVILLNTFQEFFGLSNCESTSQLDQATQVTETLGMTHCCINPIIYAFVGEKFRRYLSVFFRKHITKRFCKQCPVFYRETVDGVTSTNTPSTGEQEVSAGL
Experimental: Calcium Mobilization Assay
CHOK1-CCR2B-A5 cells (from Euroscreen) stably overexpressing the human chemokine receptor 2 isoform B were cultured in Nutrient Hams F12 medium supplemented with 5% FBS, 100 U/ml penicillin, 100 μg/ml streptomycin, 400 μg/ml G418 and 5 μg/ml puromycin.
For the assay cells were grown overnight in 384-well black clear flat bottom polystyrene plates (Costar) at 37° C. at 5% CO2. After washing with DMEM, 20 mM Hepes, 2.5 mM probenecid, 0.1% BSA (DMEM assay buffer) cells were loaded with 4 μM Fluo-4 in the same DMEM assay buffer for 2 hours at 30° C. Excess dye was removed and cells were washed with DMEM assay buffer. 384-well compound plates were prepared with DMEM assay buffer/0.5% DMSO with or without various concentrations of test compounds. Usually compounds were tested for agonist and antagonist activity.
Test compounds were added to the assay plate and agonist activity was monitored as fluorescence for 80 seconds with a FLIPR (488 nm excitation; 510-570 nm emission; Molecular Devices). After 20-30 min. of incubation at 30° C., 20 nM MCP-1 (R&D; Roche) was added and fluorescence was monitored again for 80 seconds. Increases in intracellular calcium are reported as maximum fluorescence after agonist exposure minus basal fluorescence before exposure. Antagonist activity is indicated as inhibitor concentration required for 50% inhibition of specific calcium increases.

Q: How did the IC50 turn out when `C[C@H]1C(=O)N(CCC(=O)N2CC[C@](C)(CO)[C@H](O)C2)CCN1C(=O)Nc1ccc(Cl)c(Cl)c1` (mixture of isomers) [Example 21, (S)-4-[3-((3SR,4RS)-3-Hydroxy-4-hydroxymethyl-4-methyl-piperidin-1-yl)-3-oxo-propyl]-2-methyl-3-oxo-piperazine-1-carboxylic acid (3,4-dichloro-phenyl)-amide] was run?
A: The IC50 was 844 nM.

Q: Which IC50 does the source give for `C[C@H]1C(=O)N(CCC(=O)N2CC[C@H](F)[C@@H](O)C2)CCN1C(=O)Nc1ccc(Cl)c(Cl)c1` (mixture of isomers) [Example 23, (S)-4-[3-((3SR,4SR)-4-Fluoro-3-hydroxy-piperidin-1-yl)-3-oxo-propyl]-2-methyl-3-oxo-piperazine-1-carboxylic acid (3,4-dichloro-phenyl)-amide] here?
A: Its IC50 is 3860 nM.

Q: For `C[C@H]1C(=O)N(CCCC(=O)N2CCCC(O)C2)CCN1C(=O)Nc1cccc(Cl)c1` (mixture of isomers) [Example 112, (S)-4-[4-((RS)-3-Hydroxy-piperidin-1-yl)-4-oxo-butyl]-2-methyl-3-oxo-piperazine-1-carboxylic acid (3-chloro-phenyl)-amide], which IC50 is on record?
A: The IC50 was 3200 nM.

Q: `C[C@H]1C(=O)N(CCCC(=O)N2CC[C@H](F)[C@@H](O)C2)CCN1C(=O)Nc1cccc(Cl)c1` (mixture of isomers) [Example 115, (S)-4-[4-((3SR,4SR)-4-Fluoro-3-hydroxy-piperidin-1-yl)-4-oxo-butyl]-2-methyl-3-oxo-piperazine-1-carboxylic acid (3-chloro-phenyl)-amide] was tested. Which IC50 did it give?
A: Its IC50 is 1360 nM.

Q: With `C[C@H]1C(=O)N(CCCC(=O)N2CCC3(CC3)[C@H](O)C2)C(C(=O)O)CN1C(=O)Nc1ccc(Cl)c(Cl)c1` (mixture of isomers) [Example 120, (2RS,5S)-4-(3,4-Dichloro-phenylcarbamoyl)-1-[4-((S)-4-hydroxy-6-aza-spiro[2.5]oct-6-yl)-4-oxo-butyl]-5-methyl-6-oxo-piperazine-2-carboxylic acid] as the molecule, how does the IC50 read?
A: The IC50 was 386 nM.

Q: Which IC50 does the source give for `O=C(/C=C/c1ccc(Cl)c(Cl)c1)N1CCC(=O)N(CCC(=O)N2CC[C@H](O)[C@H](O)C2)CC1` (racemic) [Example 2, 1-[(E)-3-(3,4-Dichloro-phenyl)-acryloyl]-4-[3-((3RS,4SR)-3,4-dihydroxy-piperidin-1-yl)-3-oxo-propyl]-[1,4]diazepan-5-one] here?
A: The IC50 was 1970 nM.

Q: Which IC50 does the source give for `CN(C)C(=O)C(CCO)N1CCN(C(=O)/C=C/c2ccc(Cl)c(Cl)c2)CCC1=O` (racemic) [Example 3, (rac)-2-{4-[(E)-3-(3,4-Dichloro-phenyl)-acryloyl]-7-oxo-[1,4]diazepan-1-yl}-4-hydroxy-N,N-dimethyl-butyramide] here?
A: The IC50 was 563 nM.

Q: With `O=C(/C=C/c1ccc(Cl)c(Cl)c1)N1CCC(=O)N(C(CCO)C(=O)N2CCCC2)CC1` (racemic) [Example 5, rac-(1-[(E)-3-(3,4-Dichloro-phenyl)-acryloyl]-4-[3-hydroxy-1-(pyrrolidine-1-carbonyl)-propyl]-[1,4]diazepan-5-one)] as the molecule, how does the IC50 read?
A: Its IC50 is 583 nM.

Q: How did the IC50 turn out when `O=C(/C=C/c1ccc(Cl)c(Cl)c1)N1CCC(=O)N(C(CO)CC(=O)N2CCCCC2)CC1` (racemic) [Example 6, rac-(1-[(E)-3-(3,4-Dichloro-phenyl)-acryloyl]-4-(1-hydroxymethyl-3-oxo-3-piperidin-1-yl-propyl)-[1,4]diazepan-5-one)] was run?
A: The IC50 was 2020 nM.

Q: `COC(=O)C(CC(=O)N(C)C)N1CCN(C(=O)/C=C/c2ccc(Cl)c(Cl)c2)CCC1=O` (racemic) [Example 8, rac-(2-{4-[(E)-3-(3,4-Dichloro-phenyl)-acryloyl]-7-oxo-[1,4]diazepan-1-yl}-N,N-dimethyl-succinamic acid methyl ester)] was tested. Which IC50 did it give?
A: The IC50 was 863 nM.

Q: With `COC(=O)C(CC(=O)N(C)C)N1CCN(C(=O)/C=C/c2cccc(Cl)c2)CCC1=O` (racemic) [Example 12, rac-(2-{4-[(E)-3-(3-Chloro-phenyl)-acryloyl]-7-oxo-[1,4]diazepan-1-yl}-N,N-dimethyl-succinamic acid methyl ester)] as the molecule, how does the IC50 read?
A: Its IC50 is 1940 nM.

Q: How did the IC50 turn out when `O=C(/C=C/c1ccc(Cl)c(Cl)c1)N1CCC(=O)N(CCC(=O)N2CCCCC2CO)CC1` (racemic) [Example 67, (rac)-1-[(E)-3-(3,4-Dichloro-phenyl)-acryloyl]-4-[3-(2-hydroxymethyl-piperidin-1-yl)-3-oxo-propyl]-[1,4]diazepan-5-one] was run?
A: The IC50 was 1600 nM.

Q: With `O=C(/C=C/c1ccc(Cl)c(Cl)c1)N1CCC(=O)N(CCC(=O)N2CCCC(CO)C2)CC1` (racemic) [Example 68, (rac)-1-[(E)-3-(3,4-Dichloro-phenyl)-acryloyl]-4-[3-(3-hydroxymethyl-piperidin-1-yl)-3-oxo-propyl]-[1,4]diazepan-5-one] as the molecule, how does the IC50 read?
A: Its IC50 is 758 nM.

Q: How did the IC50 turn out when `O=C(/C=C/c1ccc(Cl)c(Cl)c1)N1CCC(=O)N(CCC(=O)N2CCCC(O)C2)CC1` (racemic) [Example 70, (rac)-1-[(E)-3-(3,4-Dichloro-phenyl)-acryloyl]-4-[3-(3-hydroxy-piperidin-1-yl)-3-oxo-propyl]-[1,4]diazepan-5-one] was run?
A: Its IC50 is 1300 nM.

Q: How did the IC50 turn out when `CC1CCN(C(=O)CCN2CCN(C(=O)/C=C/c3ccc(Cl)c(Cl)c3)CCC2=O)CC1O` (racemic) [Example 71, (rac)-1-[(E)-3-(3,4-Dichloro-phenyl)-acryloyl]-4-[3-(3-hydroxy-4-methyl-piperidin-1-yl)-3-oxo-propyl]-[1,4]diazepan-5-one] was run?
A: Its IC50 is 681 nM.

Q: How did the IC50 turn out when `CC1(O)CCCN(C(=O)CCN2CCN(C(=O)/C=C/c3ccc(Cl)c(Cl)c3)CCC2=O)C1` (racemic) [Example 74, (rac)-1-[(E)-3-(3,4-Dichloro-phenyl)-acryloyl]-4-[3-(3-hydroxy-3-methyl-piperidin-1-yl)-3-oxo-propyl]-[1,4]diazepan-5-one] was run?
A: Its IC50 is 1540 nM.

Q: Which IC50 does the source give for `CC1(CO)CCCCN1C(=O)CCN1CCN(C(=O)/C=C/c2ccc(Cl)c(Cl)c2)CCC1=O` (racemic) [Example 75, (rac)-1-[(E)-3-(3,4-Dichloro-phenyl)-acryloyl]-4-[3-(2-hydroxymethyl-2-methyl-piperidin-1-yl)-3-oxo-propyl]-[1,4]diazepan-5-one] here?
A: The IC50 was 969 nM.

Q: For `CC1(CO)CCCN1C(=O)CCN1CCN(C(=O)/C=C/c2ccc(Cl)c(Cl)c2)CCC1=O` (racemic) [Example 81, (rac)-1-[(E)-3-(3,4-Dichloro-phenyl)-acryloyl]-4-[3-(2-hydroxymethyl-2-methyl-pyrrolidin-1-yl)-3-oxo-propyl]-[1,4]diazepan-5-one], which IC50 is on record?
A: Its IC50 is 1680 nM.

Q: How did the IC50 turn out when `CC1(O)CCCN(C(=O)CN2CCN(C(=O)/C=C/c3ccc(Cl)c(Cl)c3)CCC2=O)C1` (racemic) [Example 100, (rac)-1-[(E)-3-(3,4-Dichloro-phenyl)-acryloyl]-4-[2-(3-hydroxy-3-methyl-piperidin-1-yl)-2-oxo-ethyl]-[1,4]diazepan-5-one] was run?
A: Its IC50 is 411 nM.

Q: For `C[C@H]1C(=O)N(CCCC(=O)N2CC[C@](C)(CO)[C@H](O)C2)CCN1C(=O)Nc1cccc(Cl)c1` (racemic) [Example 114, (S)-4-[4-((3SR,4RS)-3-Hydroxy-4-hydroxymethyl-4-methyl-piperidin-1-yl)-4-oxo-bulyl]-2-methyl-3-oxo-piperazine-1-carboxylic acid (3-chloro-phenyl)-amide], which IC50 is on record?
A: The IC50 was 31.5 nM.

Q: For `C[C@H]1C(=O)N(CCC(F)C(=O)N2CCC3(CC3)[C@H](O)C2)CCN1C(=O)Nc1ccc(C(F)(F)F)c(Cl)c1` (single isomer, unassigned) [Example 137, (S)-4-[(R or S)-3-fluoro-4-((S)-4-hydroxy-6-aza-spiro[2.5]oct-6-yl)-4-oxo-butyl]-2-methyl-3-oxo-piperazine-1-carboxylic acid (3-chloro-4-trifluoromethyl-phenyl)-amide], which IC50 is on record?
A: The IC50 was 10.5 nM.

Q: Which IC50 does the source give for `C[C@H]1C(=O)N(CCC(F)C(=O)N2CCC3(CC3)[C@H](O)C2)CCN1C(=O)Nc1ccc(C(F)(F)F)c(Cl)c1` (single isomer, unassigned) [Example 138, (S)-4-[(S or R)-3-fluoro-4-((S)-4-hydroxy-6-aza-spiro[2.5]oct-6-yl)-4-oxo-butyl]-2-methyl-3-oxo-piperazine-1-carboxylic acid (3-chloro-4-trifluoromethyl-phenyl)-amide] here?
A: Its IC50 is 1.4 nM.

Q: How did the IC50 turn out when `O=C(/C=C/c1ccc(Cl)c(Cl)c1)N1CCC(=O)N(CCC(=O)N2CCC(O)CC2)CC1` [Example 1, 1-[(E)-3-(3,4-Dichloro-phenyl)-acryloyl]-4-[3-(4-hydroxy-piperidin-1-yl)-3-oxo-propyl]-[1,4]diazepan-5-one] was run?
A: Its IC50 is 2660 nM.

Q: `COC(=O)C(CC(=O)N1CCC2(CC2)[C@H](O)C1)N1CCN(C(=O)/C=C/c2ccc(Cl)c(Cl)c2)CCC1=O` (stereo partly drawn) [Example 7, (R,S)-2-{4-[(E)-3-(3,4-Dichloro-phenyl)-acryloyl]-7-oxo-[1,4]diazepan-1-yl}-4-((S)-4-hydroxy-6-aza-spiro[2.5]oct-6-yl)-4-oxo-butyric acid methyl ester] was tested. Which IC50 did it give?
A: The IC50 was 453 nM.

Reference: patent US8445674B2, “Heterocyclyl compounds” (Hoffmann-La Roche Inc, priority 2009, dated 2013)
